Experimental data taken from patent US7138361B2, “Herbicidal heterocycles” (E. I. du Pont de Nemours and Company, priority 2000, dated 2006).

Experiments:
Assay in all cases: Test C postemergence
Format in all cases: in vivo
[1] = tested on: goosegrass (Eleusine indica)
Method in brief: (§1)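 Plants held in greenhouse for 12–14 days post-application are scored by eye against controls on a 0–100 control scale. Application timing: preemergence on sown seed, or postemergence on 2–18 cm plants.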

[2] = tested on: morningglory (Ipomoea hederacea)
Method in brief: as §1

[3] = tested on: yellow nutsedge (Cyperus esculentus)
Method in brief: as §1

[4] = tested on: soybean (Glycine max)
Method in brief: as §1

[5] = tested on: woolly cupgrass (Eriochloa villosa)
Method in brief: as §1

[6] = tested on: Surinam grass (Brachiaria decumbens)
Method in brief: as §1

[7] = tested on: corn (Zea mays)
Method in brief: as §1

[8] = tested on: common ragweed (Ambrosia elatior)
Method in brief: as §1

[9] = tested on: chickweed (Stellaria media)
Method in brief: as §1

[10] = tested on: crabgrass (Digitaria sanguinalis)
Method in brief: as §1

[11] = tested on: giant foxtail (Setaria faberii)
Method in brief: as §1

[12] = tested on: johnsongrass (Sorghum halepense)
Method in brief: as §1

[13] = tested on: cocklebur (Xanthium strumarium)
Method in brief: as §1

[14] = tested on: velvetleaf (Abutilon theophrasti)
Method in brief: as §1

[15] = tested on: bermudagrass (Cynodon dactylon)
Method in brief: as §1

[16] = Rate 125 g/ha, scale 0 to 100, 0 no effect, 100 complete control
[17] = Rate 250 g/ha, scale 0 to 100 (0 no effect, 100 complete control)
[18] = Rate 62 g/ha, scale 0 to 100, 0 no effect, 100 complete control
[19] = Rate 500 g/ha, scale 0 to 100 (0 no effect, 100 complete control)

CC(C)(C)c1ccn(C2SCN(c3cccc(OC(F)F)c3)C2=O)n1 (centres unmarked) [Compound 36]
Plant response rating, Goosegrass ([1]; Rate 31 g/ha, scale 0 to 100): 0
Plant response rating, Goosegrass [1, 16]: 0
Plant response rating, Goosegrass [1, 17]: 0
Plant response rating, Morningglory ([2]; Rate 31 g/ha, scale 0 to 100): 0
Plant response rating, Morningglory [2, 16]: 0
Plant response rating, Morningglory [2, 17]: 20
Plant response rating, Nutsedge ([3]; Rate 31 g/ha, scale 0 to 100): 0
Plant response rating, Nutsedge [3, 16]: 0
Plant response rating, Nutsedge [3, 17]: 30
Plant response rating, Soybean ([4]; Rate 31 g/ha, scale 0 to 100): 0
Plant response rating, Soybean [4, 16]: 0
Plant response rating, Soybean [4, 17]: 0
Plant response rating, Cupgrass, Woolly ([5]; Rate 31 g/ha, scale 0 to 100): 0
Plant response rating, Cupgrass, Woolly [5, 16]: 0
Plant response rating, Cupgrass, Woolly [5, 17]: 0
Plant response rating, Surinam grass ([6]; Rate 31 g/ha, scale 0 to 100): 0
Plant response rating, Surinam grass [6, 18]: 0
Plant response rating, Surinam grass [6, 16]: 0
Plant response rating, Surinam grass [6, 17]: 0
Plant response rating, Corn ([7]; Rate 31 g/ha, scale 0 to 100): 0
Plant response rating, Corn [7, 16]: 0
Plant response rating, Corn [7, 17]: 20
Plant response rating, Ragweed, Common ([8]; Rate 31 g/ha, scale 0 to 100): 0
Plant response rating, Ragweed, Common [8, 16]: 0
Plant response rating, Ragweed, Common [8, 17]: 30
Plant response rating, Chickweed ([9]; Rate 31 g/ha, scale 0 to 100): 0
Plant response rating, Chickweed [9, 18]: 0
Plant response rating, Chickweed [9, 16]: 0
Plant response rating, Chickweed [9, 17]: 50
Plant response rating, Crabgrass ([10]; Rate 31 g/ha, scale 0 to 100): 0
Plant response rating, Crabgrass [10, 16]: 0
Plant response rating, Crabgrass [10, 17]: 30
Plant response rating, Foxtail, Giant ([11]; Rate 31 g/ha, scale 0 to 100): 0
Plant response rating, Foxtail, Giant [11, 16]: 0
Plant response rating, Foxtail, Giant [11, 17]: 20
Plant response rating, Johnsongrass ([12]; Rate 31 g/ha, scale 0 to 100): 0
Plant response rating, Johnsongrass [12, 16]: 0
Plant response rating, Johnsongrass [12, 17]: 0
Plant response rating, Cocklebur ([13]; Rate 31 g/ha, scale 0 to 100): 0
Plant response rating, Cocklebur [13, 16]: 0
Plant response rating, Cocklebur [13, 17]: 0
Plant response rating, Velvetleaf ([14]; Rate 31 g/ha, scale 0 to 100): 0
Plant response rating, Velvetleaf [14, 16]: 0
Plant response rating, Velvetleaf [14, 17]: 30
Plant response rating, Bermudagrass ([15]; Rate 31 g/ha, scale 0 to 100): 0
Plant response rating, Bermudagrass [15, 18]: 0
Plant response rating, Bermudagrass [15, 16]: 0
Plant response rating, Bermudagrass [15, 17]: 70

CCC(CC)c1ccn(C2SCN(c3cccc(C(F)(F)F)c3)C2=O)n1 (centres unmarked) [Compound 25]
Plant response rating, Goosegrass [1, 16]: 20
Plant response rating, Goosegrass [1, 17]: 60
Plant response rating, Goosegrass [1, 19]: 60
Plant response rating, Morningglory [2, 17]: 80
Plant response rating, Morningglory [2, 19]: 100
Plant response rating, Nutsedge [3, 16]: 0
Plant response rating, Nutsedge [3, 17]: 0
Plant response rating, Nutsedge [3, 19]: 0
Plant response rating, Soybean [4, 16]: 20
Plant response rating, Soybean [4, 17]: 30
Plant response rating, Soybean [4, 19]: 30
Plant response rating, Cupgrass, Woolly [5, 16]: 40
Plant response rating, Cupgrass, Woolly [5, 17]: 60
Plant response rating, Cupgrass, Woolly [5, 19]: 70
Plant response rating, Surinam grass [6, 18]: 0
Plant response rating, Surinam grass [6, 16]: 0
Plant response rating, Surinam grass [6, 17]: 0
Plant response rating, Surinam grass [6, 19]: 0
Plant response rating, Corn [7, 16]: 0
Plant response rating, Corn [7, 17]: 20
Plant response rating, Corn [7, 19]: 30
Plant response rating, Ragweed, Common [8, 16]: 0
Plant response rating, Ragweed, Common [8, 17]: 30
Plant response rating, Ragweed, Common [8, 19]: 40
Plant response rating, Chickweed [9, 18]: 60
Plant response rating, Chickweed [9, 16]: 70
Plant response rating, Chickweed [9, 17]: 80
Plant response rating, Chickweed [9, 19]: 90
Plant response rating, Crabgrass [10, 16]: 30
Plant response rating, Crabgrass [10, 17]: 70
Plant response rating, Crabgrass [10, 19]: 90
Plant response rating, Foxtail, Giant [11, 16]: 30
Plant response rating, Foxtail, Giant [11, 17]: 80
Plant response rating, Foxtail, Giant [11, 19]: 90
Plant response rating, Johnsongrass [12, 16]: 20
Plant response rating, Johnsongrass [12, 17]: 50
Plant response rating, Johnsongrass [12, 19]: 90
Plant response rating, Cocklebur [13, 16]: 60
Plant response rating, Cocklebur [13, 17]: 60
Plant response rating, Cocklebur [13, 19]: 60
Plant response rating, Velvetleaf [14, 16]: 40
Plant response rating, Velvetleaf [14, 17]: 50
Plant response rating, Velvetleaf [14, 19]: 50
Plant response rating, Bermudagrass [15, 18]: 60
Plant response rating, Bermudagrass [15, 16]: 70
Plant response rating, Bermudagrass [15, 17]: 90
Plant response rating, Bermudagrass [15, 19]: 90

CCC(CC)c1ccn(C2SCN(c3cccc(C(F)(F)F)c3)C2=O)n1 (centres unmarked) [Compound 21]
Plant response rating, Goosegrass ([1]; Rate 31 g/ha, scale 0 to 100): 0
Plant response rating, Goosegrass [1, 16]: 0
Plant response rating, Morningglory ([2]; Rate 31 g/ha, scale 0 to 100): 0
Plant response rating, Morningglory [2, 16]: 60
Plant response rating, Nutsedge ([3]; Rate 31 g/ha, scale 0 to 100): 0
Plant response rating, Nutsedge [3, 16]: 0
Plant response rating, Soybean ([4]; Rate 31 g/ha, scale 0 to 100): 0
Plant response rating, Soybean [4, 16]: 30
Plant response rating, Cupgrass, Woolly ([5]; Rate 31 g/ha, scale 0 to 100): 0
Plant response rating, Cupgrass, Woolly [5, 16]: 0
Plant response rating, Surinam grass ([6]; Rate 31 g/ha, scale 0 to 100): 0
Plant response rating, Surinam grass [6, 18]: 0
Plant response rating, Surinam grass [6, 16]: 0
Plant response rating, Corn ([7]; Rate 31 g/ha, scale 0 to 100): 0
Plant response rating, Corn [7, 16]: 0
Plant response rating, Ragweed, Common ([8]; Rate 31 g/ha, scale 0 to 100): 0
Plant response rating, Ragweed, Common [8, 16]: 50
Plant response rating, Chickweed ([9]; Rate 31 g/ha, scale 0 to 100): 30
Plant response rating, Chickweed [9, 18]: 50
Plant response rating, Chickweed [9, 16]: 50
Plant response rating, Crabgrass ([10]; Rate 31 g/ha, scale 0 to 100): 0
Plant response rating, Crabgrass [10, 16]: 0
Plant response rating, Foxtail, Giant ([11]; Rate 31 g/ha, scale 0 to 100): 0
Plant response rating, Foxtail, Giant [11, 16]: 0
Plant response rating, Johnsongrass ([12]; Rate 31 g/ha, scale 0 to 100): 0
Plant response rating, Johnsongrass [12, 16]: 50
Plant response rating, Cocklebur ([13]; Rate 31 g/ha, scale 0 to 100): 20
Plant response rating, Cocklebur [13, 16]: 30
Plant response rating, Velvetleaf ([14]; Rate 31 g/ha, scale 0 to 100): 20
Plant response rating, Velvetleaf [14, 16]: 30
Plant response rating, Bermudagrass ([15]; Rate 31 g/ha, scale 0 to 100): 50
Plant response rating, Bermudagrass [15, 18]: 50
Plant response rating, Bermudagrass [15, 16]: 50

CCCOc1cc(N2CCC(n3ccc(C(C)(C)C)n3)C2=O)ccc1C (centres unmarked) [Compound 107]
Plant response rating, Goosegrass ([1]; Rate 62 g/ha, scale 0 to 100): 0
Plant response rating, Goosegrass [1, 17]: 0
Plant response rating, Goosegrass [1, 19]: 0
Plant response rating, Morningglory ([2]; Rate 62 g/ha, scale 0 to 100): 60
Plant response rating, Morningglory [2, 17]: 100
Plant response rating, Morningglory [2, 19]: 100
Plant response rating, Nutsedge ([3]; Rate 62 g/ha, scale 0 to 100): 0
Plant response rating, Nutsedge [3, 17]: 0
Plant response rating, Nutsedge [3, 19]: 0
Plant response rating, Soybean ([4]; Rate 62 g/ha, scale 0 to 100): 0
Plant response rating, Soybean [4, 17]: 20
Plant response rating, Soybean [4, 19]: 25
Plant response rating, Cupgrass, Woolly ([5]; Rate 62 g/ha, scale 0 to 100): 0
Plant response rating, Cupgrass, Woolly [5, 17]: 0
Plant response rating, Cupgrass, Woolly [5, 19]: 0
Plant response rating, Surinam grass ([6]; Rate 62 g/ha, scale 0 to 100): 0
Plant response rating, Surinam grass [6, 16]: 0
Plant response rating, Surinam grass [6, 17]: 0
Plant response rating, Surinam grass [6, 19]: 0
Plant response rating, Corn ([7]; Rate 62 g/ha, scale 0 to 100): 0
Plant response rating, Corn [7, 17]: 0
Plant response rating, Corn [7, 19]: 0
Plant response rating, Corn ([7]; scale 0 to 100): 0
Plant response rating, Ragweed, Common [8, 19]: 50
Plant response rating, Chickweed ([9]; Rate 62 g/ha, scale 0 to 100): 50
Plant response rating, Chickweed [9, 16]: 100
Plant response rating, Chickweed [9, 17]: 100
Plant response rating, Chickweed [9, 19]: 100
Plant response rating, Crabgrass ([10]; Rate 62 g/ha, scale 0 to 100): 0
Plant response rating, Crabgrass [10, 17]: 0
Plant response rating, Crabgrass [10, 19]: 20
Plant response rating, Foxtail, Giant ([11]; Rate 62 g/ha, scale 0 to 100): 0
Plant response rating, Foxtail, Giant [11, 17]: 0
Plant response rating, Foxtail, Giant [11, 19]: 0
Plant response rating, Johnsongrass ([12]; Rate 62 g/ha, scale 0 to 100): 0
Plant response rating, Johnsongrass [12, 17]: 0
Plant response rating, Johnsongrass [12, 19]: 0
Plant response rating, Johnsongrass ([12]; rate not given, scale 0 to 100): 0
Plant response rating, Cocklebur ([13]; Rate 62 g/ha, scale 0 to 100): 0
Plant response rating, Cocklebur [13, 17]: 30
Plant response rating, Cocklebur [13, 19]: 80
Plant response rating, Velvetleaf ([14]; Rate 62 g/ha, scale 0 to 100): 30
Plant response rating, Velvetleaf [14, 17]: 50
Plant response rating, Velvetleaf [14, 19]: 80
Plant response rating, Velvetleaf ([14]; scale 0 to 100): 40
Plant response rating, Bermudagrass ([15]; Rate 62 g/ha, scale 0 to 100): 0
Plant response rating, Bermudagrass [15, 16]: 0
Plant response rating, Bermudagrass [15, 17]: 0
Plant response rating, Bermudagrass [15, 19]: 0

CCC(C)c1ccn(C2SCN(c3cccc(C(F)(F)F)c3)C2=O)n1 (centres unmarked) [Compound 20]
Plant response rating, Goosegrass [1, 16]: 20
Plant response rating, Goosegrass [1, 17]: 40
Plant response rating, Morningglory [2, 16]: 20
Plant response rating, Morningglory [2, 17]: 20
Plant response rating, Nutsedge [3, 16]: 0
Plant response rating, Nutsedge [3, 17]: 0
Plant response rating, Soybean [4, 16]: 20
Plant response rating, Soybean [4, 17]: 20
Plant response rating, Cupgrass, Woolly [5, 16]: 0
Plant response rating, Cupgrass, Woolly [5, 17]: 0
Plant response rating, Surinam grass [6, 18]: 0
Plant response rating, Surinam grass [6, 16]: 0
Plant response rating, Surinam grass [6, 17]: 0
Plant response rating, Corn [7, 16]: 0
Plant response rating, Corn [7, 17]: 0
Plant response rating, Ragweed, Common [8, 16]: 30
Plant response rating, Ragweed, Common [8, 17]: 30
Plant response rating, Chickweed [9, 18]: 50
Plant response rating, Chickweed [9, 16]: 50
Plant response rating, Chickweed [9, 17]: 70
Plant response rating, Crabgrass [10, 16]: 0
Plant response rating, Crabgrass [10, 17]: 0
Plant response rating, Foxtail, Giant [11, 16]: 0
Plant response rating, Foxtail, Giant [11, 17]: 70
Plant response rating, Johnsongrass [12, 16]: 0
Plant response rating, Johnsongrass [12, 17]: 80
Plant response rating, Cocklebur [13, 17]: 60
Plant response rating, Velvetleaf [14, 16]: 30
Plant response rating, Velvetleaf [14, 17]: 30
Plant response rating, Bermudagrass [15, 18]: 60
Plant response rating, Bermudagrass [15, 16]: 90
Plant response rating, Bermudagrass [15, 17]: 90
